Data: US20260265229A1, “Small Molecule Modulators of IL-17A, Methods of Making and Methods of Using Thereof” (Ascletis Pharma (China) Co., Limited, priority 2023, published 2026)

Each compound was assayed against T1, IL-17A (Homo sapiens, UniProt Q16552) (assay: HEK-Blue IL-17 cell assay (SEAP reporter, rhIL-17A/A stimulation)). Conditions: HEK-Blue IL-17 cells with rhIL-17A/A, 20 hours at 37° C., absorbance at 405 nm.
T1 construct: purchased R&D 7955-IL
T1 sequence (Q16552 24-155): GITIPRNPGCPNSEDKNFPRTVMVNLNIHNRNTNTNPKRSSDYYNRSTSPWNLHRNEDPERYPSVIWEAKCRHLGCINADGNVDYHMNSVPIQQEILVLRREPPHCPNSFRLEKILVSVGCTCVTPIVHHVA
Type: cell-based
Experimental: 1. The test Compounds were 3-fold serial diluted from 10 mM for 10 doses in DMSO.
2. Prepare Reference Compounds (IL-17A-Inhibitor-1) were 3-fold serial diluted from 1 mM for 10 doses in DMSO.
3. Prepare 1000× Positive control (1 mM IL-17A-Inhibitor-1) and 1000× vehicle control (100% DMSO).
• a) Cells were cultured as the HEK-Blue™ IL-17 technical data sheet recommended. HEK-Blue IL-17 cells were assayed in the exponential growth phase. • b) Aspirate growth medium and rinse cells twice with PBS to remove phenol red. • c) Resuspend cells in test medium to a proper concentration. • d) Only cells with viability greater than 90% were used for assays. • e) Transfer 25nl of compound dilutions into 384-well assay plates using Echo655; • f) Seed 25 ul of HEK-Blue IL-17 cells at 8,000 cells/well into 384-well plate with rhIL-17A/A. • g) Cells were incubated for 20 hours at 37° C. under 5% CO2 atmosphere. • h) Transfer 2 ul of cells supernatant into per well of 384-well assay plates. • i) Add 20 ul of PNPP substrate. • j) Measure the Absorbance at 405 nm on Envision 2105 plate reader.
RLU signal (LUMempd) is calculated for each well. % Inhibition is calculated as follow: […]
Signalave_pc: The average signal for the positive controls across the plate.
Signalave_vc: The average signal for negative controls across the plate.
Calculate IC50 and Plot effect-dose curve of cmpds:
Calculate IC50 by fitting % Inhibition values and log of compound concentrations to nonlinear regression (dose response−variable slope) with Graphpad 8.0.

**Q.** With `CC(=O)N1CC(c2ccc(NC(=O)[C@@H](NC(=O)c3ccnn3C(C)C)C3CCCCCC3)cc2)[C@H](C(=O)N2CC(F)(F)C(F)(F)C2)C1` (stereo partly drawn) [Cis-62] as the compound, how does the IC50 read?
**A.** The IC50 was 39.6 nM.

**Q.** How did the IC50 turn out when `COC(=O)N1C[C@H](c2ccc(NC(=O)[C@@H](NC(=O)c3ccnn3C(C)C)C3CCCCCC3)cc2)[C@H](C(=O)N2CC(F)(F)C2)C1` [Example 1, methyl (3S,4S)-3-(4-((S)-2-cycloheptyl-2-(1-isopropyl-1H-pyrazole-5-carboxamido)acetamido)phenyl)-4-(3,3-difluoroazetidine-1-carbonyl)pyrrolidine-1-carboxylate] was run?
**A.** The IC50 was 15.3 nM.

**Q.** `COC(=O)N1C[C@H](C(=O)N2CC(F)(F)C2)[C@@H](c2ccc(NC(=O)[C@@H](NC(=O)c3ccnn3C(C)C)C3CCCCCC3)cc2)C1` [Example 2] was tested. Which IC50 did it give?
**A.** The IC50 was 110 nM.

**Q.** With `CC(=O)N1C[C@H](c2ccc(NC(=O)[C@@H](NC(=O)c3ccnn3C(C)C)C3CCCCCC3)cc2)[C@H](C(=O)N2CC(F)(F)C2)C1` [Example 6] as the compound, how does the IC50 read?
**A.** Its IC50 is 69 nM.

**Q.** `COC(=O)N1CC(C(=O)N2CC(F)(F)C2)=C(c2ccc3cnc([C@@H](NC(=O)c4ccnn4C(C)C)C4CCC(F)(F)CC4)nc3c2)C1` [Example 46] was tested. Which IC50 did it give?
**A.** Its IC50 is 6040 nM.

**Q.** `CC(=O)N1C[C@H](C(=O)N2CCN(C)CC2)[C@@H](c2ccc(NC(=O)[C@@H](NC(=O)c3ccnn3C(C)C)C3CCCCCC3)cc2)C1` [Example 49] was tested. Which IC50 did it give?
**A.** The IC50 was 1860 nM.

**Q.** `CC(C)n1nccc1C(=O)N[C@H](c1nc2c(F)cc(C3=C(C(=O)N4CC(F)(F)C4)CN(C(=O)OCc4ccccc4)C3)cc2[nH]1)C1CCCCCC1` [Example 50] was tested. Which IC50 did it give?
**A.** The IC50 was 420 nM.

**Q.** `CC(=O)N1CC(C(=O)N2CC(F)(F)C2)C(c2cc(F)c3nc([C@@H](NC(=O)c4ccnn4C(C)C)C4CCCCCC4)[nH]c3c2)C1` (stereo partly drawn) [Example 51] was tested. Which IC50 did it give?
**A.** Its IC50 is 118 nM.

**Q.** Which IC50 does the source give for `CC(=O)N1C[C@H](C(=O)NCC(C)(F)F)[C@@H](c2ccc(NC(=O)[C@@H](NC(=O)c3ccnn3C(C)C)C3CCCCCC3)cc2)C1` [Example 52] here?
**A.** Its IC50 is 103 nM.

**Q.** Which IC50 does the source give for `COC(=O)N1CC(C(=O)N2CC(F)(F)C2)C(c2cc(F)c3nc([C@@H](NC(=O)c4ccnn4C(C)C)C4CCCCCC4)[nH]c3c2)C1` (stereo partly drawn) [Example 53] here?
**A.** The IC50 was 532 nM.

**Q.** For `CC(=O)N1C[C@H](C(=O)N2CC(F)(F)C(F)(F)C2)[C@@H](c2ccc(NC(=O)[C@@H](NC(=O)c3ccnn3C(C)C)C3CCCCCC3)cc2)C1` [Example 54], which IC50 is on record?
**A.** The IC50 was 28.6 nM.

**Q.** Which IC50 does the source give for `COC(=O)N1C[C@H](C(=O)N2CC(F)(F)C2)[C@@H](c2ccc(NC(=O)[C@@H](NC(=O)c3ccnn3C(C)C)C3CCC(F)(F)CC3)cc2)C1` [Example 55] here?
**A.** The IC50 was 944 nM.

**Q.** For `COC(=O)N1C[C@H](C(=O)N2CC(F)(F)C2)[C@@H](c2ccc(NC(=O)[C@@H](NC(=O)c3nonc3C)C3CCC(F)(F)CC3)cc2)C1` [Example 56], which IC50 is on record?
**A.** The IC50 was 1450 nM.

**Q.** For `COC(=O)N1C[C@H](C(=O)N2CC(F)(F)C(F)(F)C2)[C@@H](c2ccc(NC(=O)[C@@H](NC(=O)c3ccnn3C(C)C)C3CCCCCC3)cc2)C1` [Example 57], which IC50 is on record?
**A.** Its IC50 is 46.8 nM.

**Q.** `CC(C)n1nccc1C(=O)N[C@H](C(=O)Nc1ccc([C@H]2CN(C(=O)N(C)C)C[C@@H]2C(=O)N2CC(F)(F)C(F)(F)C2)cc1)C1CCCCCC1` [Example 58] was tested. Which IC50 did it give?
**A.** The IC50 was 39.3 nM.

**Q.** How did the IC50 turn out when `CC(C)n1nccc1C(=O)N[C@H](C(=O)Nc1ccc([C@H]2CN(C(=O)CCC(F)(F)F)C[C@@H]2C(=O)N2CC(F)(F)C(F)(F)C2)cc1)C1CCCCCC1` [Example 59] was run?
**A.** Its IC50 is 143 nM.

**Q.** For `CC(=O)N1C[C@H](C(=O)N2CC(F)(F)C(F)(F)C2)[C@@H](c2ccc(NC(=O)[C@@H](NC(=O)c3ccnn3C(C)C)C3CCC(F)(F)CC3)cc2)C1` [Example 60], which IC50 is on record?
**A.** Its IC50 is 315 nM.

**Q.** How did the IC50 turn out when `COC(=O)N1C[C@H](C(=O)N2CC(F)(F)C(F)(F)C2)[C@@H](c2ccc(NC(=O)[C@@H](NC(=O)c3ccnn3C(C)C)C3CCCCCC3)cc2F)C1` [Example 61] was run?
**A.** The IC50 was 66.8 nM.

**Q.** For `CC(=O)N1CC(c2ccc(NC(=O)[C@@H](NC(=O)c3ccnn3C(C)C)C(C3CC3)C3CC3)cc2)[C@@H](C(=O)N2CC(F)(F)C(F)(F)C2)C1` (stereo partly drawn) [Example 63], which IC50 is on record?
**A.** Its IC50 is 132 nM.

**Q.** With `CC(=O)N1C[C@H](c2ccc(NC(=O)[C@@H](NC(=O)c3ccnn3C(C)C)C3CCCCCC3)cc2)[C@H](C(=O)N2CC(F)(F)C(F)(F)C2)C1` [Example 64] as the compound, how does the IC50 read?
**A.** Its IC50 is 11.5 nM.

**Q.** For `CC(=O)N1C[C@H](C(=O)N2CC(F)(F)C(F)(F)C2)[C@H](c2ccc(NC(=O)[C@@H](NC(=O)c3ccnn3C(C)C)C3CCCCCC3)cc2)C1` [Example 65], which IC50 is on record?
**A.** The IC50 was 57.2 nM.

**Q.** Which IC50 does the source give for `CC(=O)N1C[C@H](c2ccc(NC(=O)[C@@H](NC(=O)c3ccnn3C(C)C)C3CCCCCC3)cc2)[C@H](C(=O)NCC(F)(F)F)C1` [Example 66] here?
**A.** Its IC50 is 44.4 nM.

**Q.** How did the IC50 turn out when `CC(=O)N1C[C@H](c2ccc(NC(=O)[C@@H](NC(=O)c3ccnn3C(C)C)C3CCCCCC3)c(F)c2)[C@H](C(=O)N2CC(F)(F)C(F)(F)C2)C1` [Example 67] was run?
**A.** The IC50 was 31.4 nM.

**Q.** With `CC(=O)N1C[C@H](C(=O)N(C)CC(F)(F)F)[C@@H](c2ccc(NC(=O)[C@@H](NC(=O)c3ccnn3C(C)C)C3CCCCCC3)cc2)C1` [Example 68] as the compound, how does the IC50 read?
**A.** Its IC50 is 48.6 nM.
